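Each compound was tested at five concentrations against cells in 96-well plates for 48 hours. GI50 marks 50% less growth. At the TGI there is no net growth.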
Key:
Assay in all cases: NCI anticancer screen, dose series, 48 h
U251 CNS = tested on: U251 CNS
SNB-75 CNS = tested on: SNB-75 CNS
MCF7 breast = tested on: MCF7 breast
M14 melanoma = tested on: M14 melanoma
SF-539 CNS = tested on: SF-539 CNS
RXF 393 renal = tested on: RXF 393 renal
LOX IMVI melanoma = tested on: LOX IMVI melanoma
HCC-2998 colon = tested on: HCC-2998 colon
SR leukemia = tested on: SR leukemia
DU-145 prostate = tested on: DU-145 prostate
NCI-H460 lung = tested on: NCI-H460 lung
MDA-MB-231 breast = tested on: MDA-MB-231 breast
KM12 colon = tested on: KM12 colon
IGROV1 ovarian = tested on: IGROV1 ovarian
HCT-15 colon = tested on: HCT-15 colon
HCT-116 colon = tested on: HCT-116 colon
SK-MEL-28 melanoma = tested on: SK-MEL-28 melanoma
SNB-19 CNS = tested on: SNB-19 CNS
HS 578T breast = tested on: HS 578T breast
UO-31 renal = tested on: UO-31 renal
MOLT-4 leukemia = tested on: MOLT-4 leukemia
CAKI-1 renal = tested on: CAKI-1 renal
CCRF-CEM leukemia = tested on: CCRF-CEM leukemia
ACHN renal = tested on: ACHN renal
SN12C renal = tested on: SN12C renal
K-562 leukemia = tested on: K-562 leukemia
NCI/ADR-RES ovarian = tested on: NCI/ADR-RES ovarian
SW-620 colon = tested on: SW-620 colon
SF-268 CNS = tested on: SF-268 CNS
HL-60(TB) leukemia = tested on: HL-60(TB) leukemia
BT-549 breast = tested on: BT-549 breast
HT29 colon = tested on: HT29 colon
OVCAR-5 ovarian = tested on: OVCAR-5 ovarian
COLO 205 colon = tested on: COLO 205 colon
786-0 renal = tested on: 786-0 renal
SK-MEL-2 melanoma = tested on: SK-MEL-2 melanoma
T-47D breast = tested on: T-47D breast
OVCAR-4 ovarian = tested on: OVCAR-4 ovarian
SF-295 CNS = tested on: SF-295 CNS
NCI-H23 lung = tested on: NCI-H23 lung
PC-3 prostate = tested on: PC-3 prostate
MALME-3M melanoma = tested on: MALME-3M melanoma
UACC-62 melanoma = tested on: UACC-62 melanoma
SK-MEL-5 melanoma = tested on: SK-MEL-5 melanoma
OVCAR-3 ovarian = tested on: OVCAR-3 ovarian
OVCAR-8 ovarian = tested on: OVCAR-8 ovarian
A549 NSCLC = tested on: A549 NSCLC
HOP-92 NSCLC = tested on: HOP-92 NSCLC
NCI-H226 lung = tested on: NCI-H226 lung
TK-10 renal = tested on: TK-10 renal
UACC-257 melanoma = tested on: UACC-257 melanoma
A498 renal = tested on: A498 renal
MDA-MB-435 = tested on: MDA-MB-435
HOP-62 NSCLC = tested on: HOP-62 NSCLC
RPMI-8226 leukemia = tested on: RPMI-8226 leukemia
EKVX NSCLC = tested on: EKVX NSCLC
SK-OV-3 ovarian = tested on: SK-OV-3 ovarian
NCI-H522 lung = tested on: NCI-H522 lung

CN(c1ccc(NC(=O)NCCN2CCOCC2)cc1)c1ccnc(Nc2ccc(CS(C)(=O)=O)cc2)n1
GI50 (U251 CNS): > 25 µM
TGI (U251 CNS): > 25 µM
GI50 (SNB-75 CNS): > 25 µM
TGI (SNB-75 CNS): > 25 µM
GI50 (MCF7 breast): > 21.7 µM
TGI (MCF7 breast): > 25 µM
GI50 (M14 melanoma): > 25 µM
TGI (M14 melanoma): > 25 µM
GI50 (SF-539 CNS): > 21.4 µM
TGI (SF-539 CNS): > 25 µM
GI50 (RXF 393 renal): > 25 µM
TGI (RXF 393 renal): > 25 µM
GI50 (LOX IMVI melanoma): > 25 µM
TGI (LOX IMVI melanoma): > 25 µM
GI50 (HCC-2998 colon): > 25 µM
TGI (HCC-2998 colon): > 25 µM
GI50 (SR leukemia): > 25 µM
TGI (SR leukemia): > 25 µM
GI50 (DU-145 prostate): > 25 µM
TGI (DU-145 prostate): > 25 µM
GI50 (NCI-H460 lung): > 25 µM
TGI (NCI-H460 lung): > 25 µM
GI50 (MDA-MB-231 breast): > 25 µM
TGI (MDA-MB-231 breast): > 25 µM
GI50 (KM12 colon): 12.2 µM
TGI (KM12 colon): > 25 µM
GI50 (IGROV1 ovarian): > 25 µM
TGI (IGROV1 ovarian): > 25 µM
GI50 (HCT-15 colon): > 25 µM
TGI (HCT-15 colon): > 25 µM
GI50 (HCT-116 colon): > 25 µM
TGI (HCT-116 colon): > 25 µM
GI50 (SK-MEL-28 melanoma): > 25 µM
TGI (SK-MEL-28 melanoma): > 25 µM
GI50 (SNB-19 CNS): > 25 µM
TGI (SNB-19 CNS): > 25 µM
GI50 (HS 578T breast): > 25 µM
TGI (HS 578T breast): > 25 µM
GI50 (UO-31 renal): > 25 µM
TGI (UO-31 renal): > 25 µM
GI50 (MOLT-4 leukemia): > 25 µM
TGI (MOLT-4 leukemia): > 25 µM
GI50 (CAKI-1 renal): > 25 µM
TGI (CAKI-1 renal): > 25 µM
GI50 (CCRF-CEM leukemia): > 25 µM
TGI (CCRF-CEM leukemia): > 25 µM
GI50 (ACHN renal): > 25 µM
TGI (ACHN renal): > 25 µM
GI50 (SN12C renal): > 25 µM
TGI (SN12C renal): > 25 µM
GI50 (K-562 leukemia): > 25 µM
TGI (K-562 leukemia): > 25 µM
GI50 (NCI/ADR-RES ovarian): > 25 µM
TGI (NCI/ADR-RES ovarian): > 25 µM
GI50 (SW-620 colon): > 25 µM
TGI (SW-620 colon): > 25 µM
GI50 (SF-268 CNS): > 25 µM
TGI (SF-268 CNS): > 25 µM
GI50 (HL-60(TB) leukemia): > 25 µM
TGI (HL-60(TB) leukemia): > 25 µM
GI50 (BT-549 breast): > 25 µM
TGI (BT-549 breast): > 25 µM
GI50 (HT29 colon): > 25 µM
TGI (HT29 colon): > 25 µM
GI50 (OVCAR-5 ovarian): > 25 µM
TGI (OVCAR-5 ovarian): > 25 µM
GI50 (COLO 205 colon): > 16.8 µM
TGI (COLO 205 colon): > 25 µM
GI50 (786-0 renal): > 25 µM
TGI (786-0 renal): > 25 µM
GI50 (SK-MEL-2 melanoma): > 25 µM
TGI (SK-MEL-2 melanoma): > 25 µM
GI50 (T-47D breast): > 23.6 µM
TGI (T-47D breast): > 25 µM
GI50 (OVCAR-4 ovarian): 19.8 µM
TGI (OVCAR-4 ovarian): > 25 µM
GI50 (SF-295 CNS): > 25 µM
TGI (SF-295 CNS): > 25 µM
GI50 (NCI-H23 lung): > 25 µM
TGI (NCI-H23 lung): > 25 µM
GI50 (PC-3 prostate): > 25 µM
TGI (PC-3 prostate): > 25 µM
GI50 (MALME-3M melanoma): > 25 µM
TGI (MALME-3M melanoma): > 25 µM
GI50 (UACC-62 melanoma): > 25 µM
TGI (UACC-62 melanoma): > 25 µM
GI50 (SK-MEL-5 melanoma): > 25 µM
TGI (SK-MEL-5 melanoma): > 25 µM
GI50 (OVCAR-3 ovarian): > 25 µM
TGI (OVCAR-3 ovarian): > 25 µM
GI50 (OVCAR-8 ovarian): > 25 µM
TGI (OVCAR-8 ovarian): > 25 µM
GI50 (A549 NSCLC): > 25 µM
TGI (A549 NSCLC): > 25 µM
GI50 (HOP-92 NSCLC): 19.2 µM
TGI (HOP-92 NSCLC): > 25 µM
GI50 (NCI-H226 lung): 9.18 µM
TGI (NCI-H226 lung): > 25 µM
GI50 (TK-10 renal): > 25 µM
TGI (TK-10 renal): > 25 µM
GI50 (UACC-257 melanoma): > 25 µM
TGI (UACC-257 melanoma): > 25 µM
GI50 (A498 renal): > 25 µM
TGI (A498 renal): > 25 µM
GI50 (MDA-MB-435): > 25 µM
TGI (MDA-MB-435): > 25 µM
GI50 (HOP-62 NSCLC): > 25 µM
TGI (HOP-62 NSCLC): > 25 µM
GI50 (RPMI-8226 leukemia): > 25 µM
TGI (RPMI-8226 leukemia): > 25 µM
GI50 (EKVX NSCLC): > 25 µM
TGI (EKVX NSCLC): > 25 µM
GI50 (SK-OV-3 ovarian): > 25 µM
TGI (SK-OV-3 ovarian): > 25 µM
GI50 (NCI-H522 lung): > 25 µM
TGI (NCI-H522 lung): > 25 µM

Reference: PubChem BioAssay (NCI)
